“And” between values parts separate entries of the source, which are not always exact repeats. Equal entries are not always repeated.
Tested on: 772245-204-R-J1-PDC complex spheroid growth
Assay: Anticancer human tumor 772245-204-R-J1-PDC patient-derived rhabdomyosarcoma cell line growth inhibition [Asc]
Conditions: for viability, T/C: stronger effect = lower value
Summary of the method: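 Concentration series start at each agent's clinical Cmax, or at 10 microM when none is established, and drop in half-log steps; agents are applied alone or together to complex spheroids built with HUVEC and hMSC.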

[1] = curve of first compound, second compound 0.03 µM
[2] = curve of first compound, second compound 0.0949 µM
[3] = curve of first compound, second compound 0.3 µM
[4] = curve of first compound, second compound 0.949 µM
[5] = curve of first compound, second compound 3 µM
[6] = second compound 0.03 µM, first compound 0.0316 µM
[7] = second compound 0.03 µM, first compound 0.1 µM
[8] = second compound 0.0949 µM, first compound 0.0316 µM
[9] = second compound 0.0949 µM, first compound 0.1 µM
[10] = second compound 0.3 µM, first compound 0.0316 µM
[11] = second compound 0.3 µM, first compound 0.1 µM
[12] = second compound 0.949 µM, first compound 0.0316 µM
[13] = second compound 0.949 µM, first compound 0.1 µM
[14] = second compound 3 µM, first compound 0.0316 µM
[15] = second compound 3 µM, first compound 0.1 µM
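Also: compound exposure lasted seven days.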
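For viability, T/C in this document: 100% = DMSO vehicle control viability.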

`O=C(c1cc(Cc2n[nH]c(=O)c3ccccc23)ccc1F)N1CCN(C(=O)C2CC2)CC1` + CCN1C(C(=O)NC23CCC(C(=O)O)(CC2)CC3)C(c2cccc(Cl)c2F)C2(C(=O)Nc3cc(Cl)ccc32)C12CCCCC2 was tested, and the IC50 [1] was > 10000 nM, the IC50 [2] was > 10000 nM and the IC50 [3] was > 10000 nM. For the same compound, the IC50 [4] was > 10000 nM, the IC50 [5] was > 10000 nM and the viability, T/C [6] was 102%. It also gave a viability, T/C [7] of 113%, a viability, T/C (second compound 0.03 µM, first compound 0.316 µM) of 93.7% and a viability, T/C (second compound 0.03 µM, first compound 1 µM) of 95.2%. For the same compound, the viability, T/C (second compound 0.03 µM, first compound 3.16 µM) was 87.3%, the viability, T/C (second compound 0.03 µM, first compound 10 µM) was 70.1% and the viability, T/C [8] was 108%. The viability, T/C [9] was 113%, the viability, T/C (second compound 0.0949 µM, first compound 0.316 µM) was 97.2% and the viability, T/C (second compound 0.0949 µM, first compound 1 µM) was 100%. It also gave a viability, T/C (second compound 0.0949 µM, first compound 3.16 µM) of 79.7%, a viability, T/C (second compound 0.0949 µM, first compound 10 µM) of 72% and a viability, T/C [10] of 121%. For the same compound, the viability, T/C [11] was 115%, the viability, T/C (second compound 0.3 µM, first compound 0.316 µM) was 102% and the viability, T/C (second compound 0.3 µM, first compound 1 µM) was 93.1%. It also gave a viability, T/C (second compound 0.3 µM, first compound 3.16 µM) of 92%, a viability, T/C (second compound 0.3 µM, first compound 10 µM) of 69.2% and a viability, T/C [12] of 101%. For the same compound, the viability, T/C [13] was 92.9%, the viability, T/C (second compound 0.949 µM, first compound 0.316 µM) was 99.6% and the viability, T/C (second compound 0.949 µM, first compound 1 µM) was 88.3%. It also gave a viability, T/C (second compound 0.949 µM, first compound 3.16 µM) of 73.3%, a viability, T/C (second compound 0.949 µM, first compound 10 µM) of 63.8% and a viability, T/C [14] of 77.2%. For the same compound, the viability, T/C [15] was 80.4%, the viability, T/C (second compound 3 µM, first compound 0.316 µM) was 84.1% and the viability, T/C (second compound 3 µM, first compound 1 µM) was 74.7%. For the same compound, the viability, T/C (second compound 3 µM, first compound 3.16 µM) was 55.8% and the viability, T/C (second compound 3 µM, first compound 10 µM) was 62.5%.
With `CCN1CCN(Cc2ccc(Nc3ncc(F)c(-c4cc(F)c5nc(C)n(C(C)C)c5c4)n3)nc2)CC1` the viability, T/C (compound 0.00316 µM) was 90.5% and 99% and 71.9%, the viability, T/C (compound 0.01 µM) was 88.2% and 90.2% and 79.9% and the viability, T/C (compound 0.0316 µM) was 103% and 87.5% and 96.3%. The viability, T/C (compound 0.1 µM) was 99.7% and 97.4% and 104%, the viability, T/C (compound 0.316 µM) was 100% and 102% and 97% and the viability, T/C (compound 1 µM) was 112% and 121% and 102%. For the same compound, the IC50 (curve of compound) was > 1000 nM.
With `Cn1ncnc1[C@H]1c2n[nH]c(=O)c3cc(F)cc(c23)N[C@@H]1c1ccc(F)cc1` the viability, T/C (compound 0.000316 µM) was 84.4% and 103% and 99.8%, the viability, T/C (compound 0.001 µM) was 98% and 95.3% and 90.9% and the viability, T/C (compound 0.00316 µM) was 78.3% and 81.4% and 77%. The viability, T/C (compound 0.01 µM) was 87.9% and 86.6% and 89.3%, the viability, T/C (compound 0.0316 µM) was 69.3% and 101% and 82.6% and the viability, T/C (compound 0.1 µM) was 72.6% and 93.3% and 85.5%. For the same compound, the IC50 (curve of compound) was > 100 nM.
With `Cn1ncnc1[C@H]1c2n[nH]c(=O)c3cc(F)cc(c23)N[C@@H]1c1ccc(F)cc1` + CCN1C(C(=O)NC23CCC(C(=O)O)(CC2)CC3)C(c2cccc(Cl)c2F)C2(C(=O)Nc3cc(Cl)ccc32)C12CCCCC2 the IC50 [1] was > 100 nM, the IC50 [2] was > 100 nM and the IC50 [3] was > 100 nM. For the same compound, the IC50 [4] was > 100 nM, the IC50 [5] was > 100 nM and the viability, T/C (second compound 0.03 µM, first compound 0.000316 µM) was 118%. It also gave a viability, T/C (second compound 0.03 µM, first compound 0.001 µM) of 106%, a viability, T/C (second compound 0.03 µM, first compound 0.00316 µM) of 95% and a viability, T/C (second compound 0.03 µM, first compound 0.01 µM) of 85.2%. The viability, T/C [6] was 86.3%, the viability, T/C [7] was 81.9% and the viability, T/C (second compound 0.0949 µM, first compound 0.000316 µM) was 103%. For the same compound, the viability, T/C (second compound 0.0949 µM, first compound 0.001 µM) was 112%, the viability, T/C (second compound 0.0949 µM, first compound 0.00316 µM) was 110% and the viability, T/C (second compound 0.0949 µM, first compound 0.01 µM) was 88.2%. It also gave a viability, T/C [8] of 88.5%, a viability, T/C [9] of 91.9% and a viability, T/C (second compound 0.3 µM, first compound 0.000316 µM) of 116%. It also gave a viability, T/C (second compound 0.3 µM, first compound 0.001 µM) of 115%, a viability, T/C (second compound 0.3 µM, first compound 0.00316 µM) of 107% and a viability, T/C (second compound 0.3 µM, first compound 0.01 µM) of 95.2%. It also gave a viability, T/C [10] of 93%, a viability, T/C [11] of 89.6% and a viability, T/C (second compound 0.949 µM, first compound 0.000316 µM) of 94.2%. The viability, T/C (second compound 0.949 µM, first compound 0.001 µM) was 99.1%, the viability, T/C (second compound 0.949 µM, first compound 0.00316 µM) was 119% and the viability, T/C (second compound 0.949 µM, first compound 0.01 µM) was 92.3%. The viability, T/C [12] was 75.4%, the viability, T/C [13] was 76.6% and the viability, T/C (second compound 3 µM, first compound 0.000316 µM) was 82.7%. The viability, T/C (second compound 3 µM, first compound 0.001 µM) was 94%, the viability, T/C (second compound 3 µM, first compound 0.00316 µM) was 75.8% and the viability, T/C (second compound 3 µM, first compound 0.01 µM) was 65.9%. The viability, T/C [14] was 70.8% and the viability, T/C [15] was 62.5%.

Reference: PubChem BioAssay AID1963433 (Molecular Pharmacology Branch, DTP, NCI, 2024)
